Reference: paper PMC8041284, “Tunable Methacrylamides for Covalent Ligand Directed Release Chemistry” (Journal of the American Chemical Society, 2021)
Where a SMILES comes first, the peptide text is derived from it. Bridges are numbered along the chain shown (N, C = ends). Where no end group is shown, it is not given here. [ ]: non-standard residue; d: D form. The star is where a group is joined. Ileψ(thiazoline)Cys = CC[C@H](C)[C@H](N)C1=N[C@H](C(=O)*)CS1; Dolaproine = CO[C@@H]([C@@H]1CCCN1)[C@@H](C)C(=O)O; Dil = CC[C@H](C)[C@H](NC)[C@@H](CC(=O)O)OC; X2 = C[C@@H](N*)[C@@H](O)c1ccccc1; NMeV = CN[C@H](C(=O)O)C(C)C; dOrn = NCCC[C@@H](N)C(=O)O

Biological target: BTK (Homo sapiens, UniProt Q06187)
Assay: biochemical
Details: read-out: BTK inhibition (%)

Sequence of BTK (Q06187 402-655 limits assumed): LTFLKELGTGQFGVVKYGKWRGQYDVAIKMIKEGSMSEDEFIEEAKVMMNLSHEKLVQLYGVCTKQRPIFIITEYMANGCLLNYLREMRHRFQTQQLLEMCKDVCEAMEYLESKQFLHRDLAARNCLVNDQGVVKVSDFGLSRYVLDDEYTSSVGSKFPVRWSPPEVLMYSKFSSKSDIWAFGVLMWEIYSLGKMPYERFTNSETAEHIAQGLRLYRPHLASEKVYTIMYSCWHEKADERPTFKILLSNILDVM

Compound	inhibition at 10 µM
Oc1ccc(-c2c(-c3ccccc3)nn3c(C(F)(F)F)cc(C(F)(F)F)nc23)cc1 [PCM-0216048]	27.8%
C[C@@]12C[C@@H](c3ccoc3)OC(=O)[C@@H]1CC[C@]1(C)[C@H]2[C@@H]2C=C[C@@]1(O)C(=O)O2 [PCM-0216442]	0%
Cc1c(N[C@@H](c2nnc(-c3ccc(C#N)cc3)o2)[C@H](C)O)ccc(C#N)c1Cl [PCM-0216075]	17.8%
CC[C@H](C)[C@@H]([C@@H](CC(=O)N1CCC[C@H]1[C@H](OC)[C@@H](C)C(=O)N[C@H](C)[C@@H](O)c1ccccc1)OC)N(C)C(=O)[C@@H](NC(=O)[C@@H](NC)C(C)C)C(C)C [PCM-0215521] (H-[NMeV]V[Dil][Dolaproine]-X2)	-3.9%

Same assay, conditions: read-out: BTK inhibition (%), 0.75 uM BTK, […] probe 3l, 15 min preincubation

Compound	inhibition at 10 µM
NCCCC[C@H](N[C@@H](CCc1ccccc1)C(=O)O)C(=O)N1CCC[C@H]1C(=O)O [PCM-0085899]	1.7%
C[C@@H]1O[C@@H](O[C@H]2[C@H](Oc3cc(O)c4c(c3)O[C@H](c3ccc(O)cc3)CC4=O)O[C@H](CO)[C@@H](O)[C@@H]2O)[C@H](O)[C@H](O)[C@H]1O [PCM-0088327]	-7%
CC(=O)N1CCN(c2ccc(NC(=O)Cc3cnc(-c4ccnc(F)c4)c(C)c3)nc2)CC1 [PCM-0215890]	-10.8%
Cc1cc(C)c(CNC(=O)c2cc(-c3ccc(CN4CCOCC4)cc3)cc3c2cnn3C2CCCC2)c(=O)[nH]1 [PCM-0215223]	-6.8%
CCCC(=O)Nc1cccc(NC(=O)c2ccccc2Br)c1 [PCM-0095401]	19.5%
C=CC(=O)Nc1cccc(Nc2nc(Nc3ccc(OCCOC)cc3)ncc2F)c1 [PCM-0095787]	90.3%
CN1CCN(c2cccc(Nc3nc4c(-c5ccc(S(C)(=O)=O)cc5)cccn4n3)c2)CC1 [PCM-0095404]	41.4%
CNS(=O)(=O)CC1CCC(N(C)c2ncnc3[nH]ccc23)CC1 (centres unmarked) [PCM-0215617]	9.7%
CN(C)Cc1c[nH]c2ccccc12 [PCM-0091332]	-24.9%
Cc1cc(C(C)(C)C)cc(C)c1CC1=NCCN1 [PCM-0064984]	-0.8%
Cc1cc(N2CCCCC2)nc2ccccc12 [PCM-0215982]	10%
COc1cc(C=O)ccc1OC(C)=O [PCM-0215077]	-10.1%
NC(N)=NCCCC(N)C(=O)O (centres unmarked) [PCM-0064685]	-17%
CC[C@H](C)[C@H](N)C1=N[C@H](C(=O)N[C@@H](CC(C)C)C(=O)N[C@H](CCC(=O)O)C(=O)N[C@H](C(=O)N[C@H]2CCCCNC(=O)[C@H](CC(N)=O)NC(=O)[C@@H](CC(=O)O)NC(=O)[C@H](Cc3cnc[nH]3)NC(=O)[C@@H](Cc3ccccc3)NC(=O)[C@H]([C@@H](C)CC)NC(=O)[C@@H](CCCN)NC2=O)[C@@H](C)CC)CS1 [PCM-0215200] ({Ileψ(thiazoline)Cys}-L[dE]IK[dOrn]I[dF]H[dD]N; lactam 4-C)	-27.2%
RKDVY [PCM-0214887]	4.8%
COc1cc2c(c(O)c1OC)-c1c(cc(OC)c(OC)c1OC)C[C@@H](C)[C@@H](C)C2 [PCM-0216483]	23.9%
O=C[C@H](O)[C@H]1OC(=O)[C@@H](O)[C@H]1O [PCM-0215140]	-1.4%
CCN=C1N[C@@H]2[C@@H](O)[C@H](O)[C@@H](CO)O[C@@H]2S1 [PCM-0215232]	3.1%
O=C(O)CCCCC(CCSCc1ccccc1)SCc1ccccc1 (centres unmarked) [PCM-0095341]	-39.7%
CN(C)C(=O)C(CCN1CCC(O)(c2ccc(Cl)cc2)CC1)(c1ccccc1)c1ccccc1 [PCM-0065584]	18.7%
CCOc1cc2ncc(C#N)c(Nc3ccc(F)c(Cl)c3)c2cc1NC(=O)/C=C/CN(C)C [PCM-0095063]	96.6%
NC(=O)Cc1cccc(C(=O)c2ccccc2)c1N [PCM-0095009]	11.7%
O[C@@H]1[C@H](O)[C@@H](O)CO[C@H]1O [PCM-0215084]	0.8%

Compound	inhibition at 10 µM
Cc1c(C(=O)NN2CCCCC2)nn(-c2ccc(Cl)cc2Cl)c1-c1ccc(Cl)cc1 [PCM-0095470]	42%
CC(=O)OCC1=C(C(=O)O)N2C(=O)[C@@H](N)[C@H]2SC1 [PCM-0215190]	-8.5%
CCOC(=O)n1ccn(C)c1=S [PCM-0086034]	-17.1%
c1ccc2c(CCNc3ccc(Nc4ccncc4)cc3)c[nH]c2c1 [PCM-0095026]	26.9%
CC1=CC(=O)c2ccccc2C1=O [PCM-0009823]	-3.1%
C=CC(=O)Nc1cc(Nc2nccc(-c3c[nH]c4ccccc34)n2)c(OC)cc1N(C)CCN(C)C [PCM-0215489]	91.7%
CC[C@H]1CN2CC[C@H]1C[C@H]2[C@H](O)c1ccnc2ccc(OC)cc12 [PCM-0215969]	-13.1%
COCC(=O)Nc1cc(Sc2ccccc2)ccc1N=C(NC(=O)OC)NC(=O)OC [PCM-0216017]	11.6%
C[C@]12CC[C@H]3[C@@H](CC[C@@]45O[C@@H]4C(O)=C(C#N)C[C@]35C)[C@@H]1CC[C@@H]2O [PCM-0214622]	13.2%
C[C@H](CS)C(=O)N1CCC[C@H]1C(=O)O [PCM-0064658]	-2.3%
COc1ccc(-c2cc(=O)c3c(O)cc(O)cc3o2)cc1O [PCM-0094859]	57.6%
C=C1CC[C@H](O)C/C1=C/C=C1\CCC[C@]2(C)[C@@H]([C@H](C)/C=C/[C@H](C)C(C)C)CC[C@@H]12 [PCM-0214746]	-23.3%
C[C@]1(COc2ccc(N3CCC(Oc4ccc(OC(F)(F)F)cc4)CC3)cc2)Cn2cc([N+](=O)[O-])nc2O1 [PCM-0215096]	-1.5%
CC1(C)C=Cc2cc(-c3coc4cc(O)ccc4c3=O)ccc2O1 [PCM-0216531]	28.6%
CCOC(=O)c1cnc2ccc(-c3cncc(NS(=O)(=O)c4ccccc4)c3)cn12 [PCM-0215311]	-4.1%
CC(C)OC(=O)C(C(=O)OC(C)C)=C1SC=CS1 [PCM-0094945]	3.9%
C[C@@H]1Cc2c([nH]c3ccccc23)[C@@H](c2c(F)cc(/C=C/C(=O)O)cc2F)N1CC(C)(C)F [PCM-0215727]	30.9%
CC(NC(=O)[C@H](Cc1ccccc1)NC(=O)OCc1ccccc1)C(=O)CF (some centres unmarked) [PCM-0215313]	-3.1%
O=CC[C@@H](O)[C@H](O)[C@H](O)CO [PCM-0214849]	5.4%
CO[C@H]1C[C@@H]2CC[C@@H](C)[C@@](O)(O2)C(=O)C(=O)N2CCCC[C@H]2C(=O)O[C@H]([C@H](C)C[C@@H]2CC[C@@H](OP(C)(C)=O)[C@H](OC)C2)CC(=O)[C@H](C)/C=C(\C)[C@@H](O)[C@@H](OC)C(=O)[C@H](C)C[C@H](C)/C=C/C=C/C=C/1C [PCM-0214600]	-16.6%
OC[C@H]1O[C@H](O[C@H]2[C@H](O)[C@@H](O)C(O)O[C@@H]2CO)[C@H](O)[C@@H](O)[C@@H]1O (some centres unmarked) [PCM-0215131]	0%
O=C(c1ccc(F)c(F)c1Nc1ccc(I)cc1F)N1CC(O)([C@@H]2CCCCN2)C1 [PCM-0215480]	-5.5%
CC(=O)Oc1cc(C(F)(F)F)ccc1C(=O)O [PCM-0065558]	-8.6%

Compound	inhibition at 10 µM
Cc1ccc(NC(=O)c2ccc(CN3CC[C@H](N(C)C)C3)c(C(F)(F)F)c2)cc1Nc1nccc(-c2cncnc2)n1 [PCM-0214863]	36.6%
CC1(N)CCN(c2cnc(-c3cccc(Cl)c3Cl)c(N)n2)CC1 [PCM-0215991]	14.7%
Cc1sc2c(c1C)C(c1ccc(Cl)cc1)=N[C@@H](CC(=O)Nc1ccc(O)cc1)c1nnc(C)n1-2 [PCM-0095727]	3.1%
CC[C@H](C)[C@H](NC(=O)[C@H]([C@@H](C)CC)N(C)C(C)=O)C(=O)N[C@H](C(=O)N[C@@H](CC(C)C)C(=O)[C@@]1(C)CO1)[C@@H](C)O [PCM-0215680]	23.9%
C[C@]1(c2nc3c(C(N)=O)cccc3[nH]2)CCCN1 [PCM-0094885]	-6.2%
FC(F)(F)Oc1ccc(-c2ccc3nnc(C(F)(F)F)n3c2)cc1 [PCM-0216074]	7.7%
Cc1ccc(N(CC2=NCCN2)c2cccc(O)c2)cc1 [PCM-0065435]	-8.6%
COCCOc1nc(-c2ccc(Cl)c(Cl)c2)n(-c2ccc(NC(=O)CCl)cc2)n1 [PCM-0215327]	106%
CC(C)=CCC[C@](C)(O[C@@H]1O[C@H](CO)[C@@H](O)[C@H](O)[C@H]1O)[C@H]1CC[C@]2(C)[C@@H]1[C@H](O)C[C@@H]1[C@@]3(C)CC[C@H](O)C(C)(C)[C@@H]3[C@@H](O[C@@H]3O[C@H](CO)[C@@H](O)[C@H](O)[C@H]3O[C@@H]3O[C@@H](C)[C@H](O)[C@@H](O)[C@H]3O)C[C@]12C [PCM-0214989]	-8.6%
O=C(O)C1=CO[C@@H](O[C@@H]2O[C@H](CO)[C@@H](O)[C@H](O)[C@H]2O)[C@@H]2C(CO)=CC[C@H]12 [PCM-0086855]	-2.8%
COc1c(N2CCNC(C)C2)c(F)cc2c(=O)c(C(=O)O)cn(C3CC3)c12 (centres unmarked) [PCM-0086315]	-40.5%
CC(C)Oc1ccc(C(=O)N[C@H](CNC(=O)CN(C)C)Cc2ccc(-c3cn4cccc([C@H](C)O)c4n3)cc2)cc1Cl [PCM-0215312]	-30.9%
CCCCc1nc(C)c(CC(=S)N(C)C)c(=O)n1Cc1ccc(-c2ccccc2-c2nn[nH]n2)cc1 [PCM-0215150]	-6.2%
CCCNC(=O)Nc1ccc(Oc2ncnc3cc(OC)c(OC)cc23)cc1Cl [PCM-0095113]	-11%
NC(=S)c1ccncc1 [PCM-0214940]	7.8%
Cc1c[nH]c2nc(Nc3ccc(N4CCN(C)CC4)c(F)c3)nc(-c3cccc(CC#N)c3)c12 [PCM-0215633]	92.4%
CC(C)n1c(=O)n(C)c2cnc3cc(F)c(-c4ccc(OCCCN5CCCCC5)nc4)cc3c21 [PCM-0216091]	-13.9%
CCc1ccc(Cc2ccc3c(c2)[C@]2(OC3)O[C@H](CO)[C@@H](O)[C@H](O)[C@H]2O)cc1 [PCM-0215855]	5.4%
O=C(CCCCc1ccc2c(c1)OCO2)N1CCCCC1 [PCM-0216131]	-17.8%
CCCCCCCCCCCCCCCCCCOP(=O)([O-])OC1CC[N+](C)(C)CC1 [PCM-0215183]	-46.8%
Cc1cn([C@H]2C[C@H](O)[C@@H](CO)O2)c(=O)[nH]c1=O [PCM-0215065]	-11.7%
